Values quoted from earlier work in patent publication US20060251750A1, “Soy formulations and their use in skin care” (priority 2002, published 2006).

Tests used:
UV radiation = conditions: lotions
squamous cell carcinomas = conditions: daily topical applications of lotions
photocarcinogenesis = conditions: hairless mice; both topical and oral administration

| Compound | inflammatory edema reactions induced by UV radiation (UV radiation) | suppression of contact hypersensitivity induced by UV radiation (UV radiation) | proportion of tumors progressing from benign papillomas to malignant squamous cell carcinomas (squamous cell carcinomas) | size of these carcinomas (squamous cell carcinomas) | initiation and promotion of photocarcinogenesis (photocarcinogenesis) | tumor incidence and multiplicity (photocarcinogenesis) |
| --- | --- | --- | --- | --- | --- | --- |
| Oc1ccc(C2=Cc3ccc(O)cc3OC2)cc1 [dehydroequol] | reduce | reduce | – | – | – | – |
| Oc1ccc([C@H]2COc3cc(O)ccc3C2)cc1 [equol] | reduce | reduce | reduce | reduce | – | – |
| O=c1c(-c2ccc(O)cc2)coc2cc(O)cc(O)c12 [genistein] | reduce | reduce | – | – | inhibit | reduction |
| isoequol | reduce | reduce | – | – | – | – |
